Measurements taken from patent US9242970B2 (ACTELION PHARMACEUTICALS LTD., priority 2010, dated 2016).

Key:
[1] = biological target: human orexin-1 receptor (Homo sapiens (Human), UniProt O43613); experiment: In vitro assay: intracellular calcium measurements (FLIPR), antagonistic activity; assay type: cell-based; details: CHO cells, 3 nM orexin-A, compound incubation 120 min; marked values are geometric means of n = 2-6; read-out: IC50 OX1
[2] = biological target: human orexin-2 receptor (Homo sapiens (Human), UniProt O43614); experiment: as above; assay type: cell-based; details: CHO cells, 3 nM orexin-A, compound incubation 120 min; marked values are geometric means of n = 2-6; read-out: IC50 OX2
human orexin-2 receptor, sequence (O43614 whole entry): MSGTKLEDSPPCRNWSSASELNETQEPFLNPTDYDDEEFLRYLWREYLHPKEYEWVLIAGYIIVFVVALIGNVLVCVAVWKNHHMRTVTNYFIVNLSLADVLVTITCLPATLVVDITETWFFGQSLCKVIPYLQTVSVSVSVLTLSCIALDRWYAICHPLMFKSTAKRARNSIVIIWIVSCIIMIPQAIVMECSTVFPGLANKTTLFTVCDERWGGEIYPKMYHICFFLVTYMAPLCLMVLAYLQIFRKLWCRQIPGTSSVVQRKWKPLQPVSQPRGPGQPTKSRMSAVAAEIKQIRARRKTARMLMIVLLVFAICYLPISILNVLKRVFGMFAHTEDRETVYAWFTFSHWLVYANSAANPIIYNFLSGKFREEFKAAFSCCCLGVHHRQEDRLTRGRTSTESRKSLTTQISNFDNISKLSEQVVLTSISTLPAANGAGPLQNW

human orexin-1 receptor, sequence (O43613 whole entry): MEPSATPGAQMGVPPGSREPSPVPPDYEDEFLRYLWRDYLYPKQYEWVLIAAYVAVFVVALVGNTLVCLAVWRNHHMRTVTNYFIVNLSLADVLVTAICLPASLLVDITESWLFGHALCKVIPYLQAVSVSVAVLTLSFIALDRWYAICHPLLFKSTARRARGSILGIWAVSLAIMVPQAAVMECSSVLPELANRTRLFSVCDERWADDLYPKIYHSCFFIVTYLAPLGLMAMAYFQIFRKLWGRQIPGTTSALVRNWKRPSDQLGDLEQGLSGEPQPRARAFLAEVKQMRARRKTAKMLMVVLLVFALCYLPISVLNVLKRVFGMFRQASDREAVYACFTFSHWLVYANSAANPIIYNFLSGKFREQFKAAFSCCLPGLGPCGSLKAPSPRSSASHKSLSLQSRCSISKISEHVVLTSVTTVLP

Compound | IC50 [1] | IC50 [2]
Cc1nc(-c2cccc(CN3C(=O)CCCC3c3ccccc3-c3ccccc3)c2)cs1 (stereo not drawn) [Example 283, 6-([1,1′-biphenyl]-2-yl)-1-(3-(2-methylthiazol-4-yl)benzyl)piperidin-2-one] | 275 nM | 548 nM
O=C1CCCC(c2ccccc2-c2ccccc2)N1Cc1cccc(-c2ccccc2)c1 (stereo not drawn) [Example 284, 6-([1,1′-biphenyl]-2-yl)-1-([1,1′-biphenyl]-3-ylmethyl)piperidin-2-one] | 1450 nM | 722 nM
O=C1CCC(c2ccccc2-c2ccccc2)N1Cc1cccc(-c2ccccc2)c1 (stereo not drawn) [Example 285, 5-([1,1′-biphenyl]-2-yl)-1-([1,1′-biphenyl]-3-ylmethyl)pyrrolidin-2-one] | 243 nM | 533 nM
Cc1nc(-c2cccc(CN3C(=O)CCC3c3ccccc3-c3ccccc3)c2)cs1 (stereo not drawn) [Example 286, 5-([1,1′-biphenyl]-2-yl)-1-(3-(2-methylthiazol-4-yl)benzyl)pyrrolidin-2-one] | 104 nM | 462 nM
O=C1CCC(c2ccccc2-c2ccccc2)N1Cc1ccc(OC(F)(F)F)cc1 (stereo not drawn) [Example 287, 5-([1,1′-biphenyl]-2-yl)-1-(4-(trifluoromethoxy)benzyl)pyrrolidin-2-one] | 922 nM | 585 nM
O=C1CCC(c2ccccc2-c2ccccc2)N1Cc1csc(-c2ccccc2)n1 (stereo not drawn) [Example 288, 5-([1,1′-biphenyl]-2-yl)-1-((2-phenylthiazol-4-yl)methyl)pyrrolidin-2-one] | 825 nM | 1370 nM
CC1CC(c2ccccc2-c2ccccc2)N(Cc2cccc(-c3ccccc3)c2)C1=O (stereo not drawn) [Example 289, 5-([1,1′-biphenyl]-2-yl)-1-([1,1′-biphenyl]-3-ylmethyl)-3-methylpyrrolidin-2-one] | 420 nM | 596 nM
Cc1nc(-c2cccc(CN3C(=O)C(C)CC3c3ccccc3-c3ccccc3)c2)cs1 (stereo not drawn) [Example 290, 5-([1,1′-biphenyl]-2-yl)-3-methyl-1-(3-(2-methylthiazol-4-yl)benzyl)pyrrolidin-2-one] | 103 nM | 455 nM
CC1CC(c2ccccc2-c2ccccc2)N(Cc2ccc(OC(F)(F)F)cc2)C1=O (stereo not drawn) [Example 291, 5-([1,1′-biphenyl]-2-yl)-3-methyl-1-(4-(trifluoromethoxy)benzyl)pyrrolidin-2-one] | 2050 nM | 457 nM
COc1cccc(OC)c1C1CCC(=O)N1Cc1ccc(Oc2nc(C)cs2)cc1 (stereo not drawn) [Example 292, 5-(2,6-dimethoxyphenyl)-1-(4-((4-methylthiazol-2-yl)oxy)benzyl)pyrrolidin-2-one] | 214 nM | 125 nM
COc1cccc(OC)c1C1CC(F)(F)C(=O)N1Cc1cccc(-c2ccccc2)c1 (stereo not drawn) [Example 336, 1-([1,1′-biphenyl]-3-ylmethyl)-5-(2,6-dimethoxyphenyl)-3,3-difluoropyrrolidin-2-one] | 16 nM | 81 nM
CCOc1cccc(OC)c1C1CC(F)(F)C(=O)N1Cc1cccc(-c2ccccc2)c1 (stereo not drawn) [Example 337, 1-([1,1′-biphenyl]-3-ylmethyl)-5-(2-ethoxy-6-methoxyphenyl)-3,3-difluoropyrrolidin-2-one] | 12 nM | 63 nM
COc1cccc(OC)c1C1CC(C)C(=O)N1Cc1cnc2ccccc2c1 (stereo not drawn) [Example 347, 5-(2,6-dimethoxyphenyl)-3-methyl-1-(quinolin-3-ylmethyl)pyrrolidin-2-one] | 1400 nM | 777 nM
COc1cccc(OC)c1C1CC(C)C(=O)N1Cc1ccc2ccccc2n1 (stereo not drawn) [Example 348, 5-(2,6-dimethoxyphenyl)-3-methyl-1-(quinolin-2-ylmethyl)pyrrolidin-2-one] | 206 nM | 474 nM
COc1ccnc(OC)c1C1CC(C)C(=O)N1Cc1cccc(-c2ncc(C)s2)c1 (stereo not drawn) [Example 349, 5-(2,4-dimethoxypyridin-3-yl)-3-methyl-1-(3-(5-methylthiazol-2-yl)benzyl)pyrrolidin-2-one] | 104 nM | 120 nM
COc1ccnc(OC)c1C1CC(C)C(=O)N1Cc1csc(-c2ccc(C)cc2)n1 (stereo not drawn) [Example 350, 5-(2,4-dimethoxypyridin-3-yl)-3-methyl-1-((2-(p-tolyl)thiazol-4-yl)methyl)pyrrolidin-2-one] | 665 nM | 51 nM
COc1cccc(OC)c1C1CC(C)C(=O)N1Cc1ccnc(-c2ncc(C)s2)c1 (stereo not drawn) [Example 351, 5-(2,6-dimethoxyphenyl)-3-methyl-1-((2-(5-methylthiazol-2-yl)pyridin-4-yl)methyl)pyrrolidin-2-one] | 16 nM | 51 nM
COc1ccnc(OC)c1C1CC(C)C(=O)N1Cc1ccc2oc3ccccc3c2c1 (stereo not drawn) [Example 352, 1-(dibenzo[b,d]furan-2-ylmethyl)-5-(2,4-dimethoxypyridin-3-yl)-3-methylpyrrolidin-2-one] | 7 nM | 13 nM

Compound | IC50 [1] | IC50 [2]
COc1cccc(OC)c1C1CC(F)(F)C(=O)N1Cc1ccc2oc3ccccc3c2c1 (stereo not drawn) [Example 353, 1-(dibenzo[b,d]furan-2-ylmethyl)-5-(2,6-dimethoxyphenyl)-3,3-difluoropyrrolidin-2-one] | 4 nM | 19 nM
COc1ccnc(OC)c1C1CC(C)C(=O)N1Cc1cccc(-c2ccccc2)c1 (stereo not drawn) [Example 354, 1-([1,1′-biphenyl]-3-ylmethyl)-5-(2,4-dimethoxypyridin-3-yl)-3-methylpyrrolidin-2-one] | 56 nM | 113 nM
COc1ccnc(OC)c1C1CC(C)C(=O)N1Cc1cccc(-c2nc(Cl)cs2)c1 (stereo not drawn) [Example 355, 1-(3-(4-chlorothiazol-2-yl)benzyl)-5-(2,4-dimethoxypyridin-3-yl)-3-methylpyrrolidin-2-one] | 34 nM | 103 nM
COc1ccnc(OC)c1C1CC(C)C(=O)N1Cc1cccc(-c2csc(C)n2)c1 (stereo not drawn) [Example 356, 5-(2,4-dimethoxypyridin-3-yl)-3-methyl-1-(3-(2-methylthiazol-4-yl)benzyl)pyrrolidin-2-one] | 30 nM | 113 nM
COc1cccc(F)c1C1CC(C)C(=O)N1Cc1cnc2ccccc2c1 (stereo not drawn) [Example 358, 5-(2-fluoro-6-methoxyphenyl)-3-methyl-1-(quinolin-3-ylmethyl)pyrrolidin-2-one] | 959 nM | 1260 nM
COc1cccc(F)c1C1CC(C)C(=O)N1Cc1ccc2ccccc2n1 (stereo not drawn) [Example 359, 5-(2-fluoro-6-methoxyphenyl)-3-methyl-1-(quinolin-2-ylmethyl)pyrrolidin-2-one] | 1710 nM | 334 nM
COc1cccc(F)c1C1CC(C)C(=O)N1Cc1ccnc(-c2ncc(C)s2)c1 (stereo not drawn) [Example 360, 5-(2-fluoro-6-methoxyphenyl)-3-methyl-1-((2-(5-methylthiazol-2-yl)pyridin-4-yl)methyl)pyrrolidin-2-one] | 352 nM | 12 nM
COc1cccc(F)c1C1CC(C)C(=O)N1Cc1ccnc(-n2cccn2)c1 (stereo not drawn) [Example 361, 1-((2-(1H-pyrazol-1-yl)pyridin-4-yl)methyl)-5-(2-fluoro-6-methoxyphenyl)-3-methylpyrrolidin-2-one] | 849 nM | 87 nM
COc1cccc(F)c1C1CC(C)C(=O)N1Cc1ccc2oc3ccccc3c2c1 (stereo not drawn) [Example 362, 1-(dibenzo[b,d]furan-2-ylmethyl)-5-(2-fluoro-6-methoxyphenyl)-3-methylpyrrolidin-2-one] | 85 nM | 6 nM
COc1cccc(F)c1C1CC(C)C(=O)N1Cc1csc(-c2ccc(C)cc2)n1 (stereo not drawn) [Example 363, 5-(2-fluoro-6-methoxyphenyl)-3-methyl-1-((2-(p-tolyl)thiazol-4-yl)methyl)pyrrolidin-2-one] | 424 nM | 49 nM
COc1cccc(F)c1C1CC(C)C(=O)N1Cc1cccc(-c2ncc(C)s2)c1 (stereo not drawn) [Example 364, 5-(2-fluoro-6-methoxyphenyl)-3-methyl-1-(3-(5-methylthiazol-2-yl)benzyl)pyrrolidin-2-one] | 121 nM | 11 nM
COc1cccc(F)c1C1CC(C)C(=O)N1Cc1cccc(-c2nc(Cl)cs2)c1 (stereo not drawn) [Example 365, 1-(3-(4-chlorothiazol-2-yl)benzyl)-5-(2-fluoro-6-methoxyphenyl)-3-methylpyrrolidin-2-one] | 114 nM | 9 nM
COc1cccc(F)c1C1CC(C)C(=O)N1Cc1ccnc(-c2nc(C)cs2)c1 (stereo not drawn) [Example 366, 5-(2-fluoro-6-methoxyphenyl)-3-methyl-1-((2-(4-methylthiazol-2-yl)pyridin-4-yl)methyl)pyrrolidin-2-one] | 158 nM | 8 nM
CCOc1cccc(F)c1C1CC(C)C(=O)N1Cc1cccc(OC(F)(F)F)c1 (stereo not drawn) [Example 371, 5-(2-ethoxy-6-fluorophenyl)-3-methyl-1-(3-(trifluoromethoxy)benzyl)pyrrolidin-2-one] | 386 nM | 19 nM
CCOc1cccc(F)c1C1CC(C)C(=O)N1Cc1ccc(OC(F)(F)F)c(F)c1 (stereo not drawn) [Example 372, 5-(2-ethoxy-6-fluorophenyl)-1-(3-fluoro-4-(trifluoromethoxy)benzyl)-3-methylpyrrolidin-2-one] | 1490 nM | 115 nM
CCOc1cccc(F)c1C1CC(C)C(=O)N1Cc1cccc(OC(F)F)c1 (stereo not drawn) [Example 374, 1-(3-(difluoromethoxy)benzyl)-5-(2-ethoxy-6-fluorophenyl)-3-methylpyrrolidin-2-one] | 976 nM | 41 nM
CCOc1cccc(F)c1C1CC(C)C(=O)N1Cc1ccc(OC(F)F)c(Cl)c1 (stereo not drawn) [Example 375, 1-(3-chloro-4-(difluoromethoxy)benzyl)-5-(2-ethoxy-6-fluorophenyl)-3-methylpyrrolidin-2-one] | 715 nM | 65 nM
CCOc1cccc(F)c1C1CC(C)C(=O)N1Cc1cnc2ccccc2c1 (stereo not drawn) [Example 378, 5-(2-ethoxy-6-fluorophenyl)-3-methyl-1-(quinolin-3-ylmethyl)pyrrolidin-2-one] | 1640 nM | 690 nM
